# Entries after “also recorded” stand apart in the source; their conditions may differ.
# Tested on: Reserpine-Induced Tardive Dyskinesia in Mice
# Test: Reserpine-induced tardive dyskinesia in mice, vacuous chewing movements (VCM) count
# Assay type: in vivo
# Details: for VCM frequency per 10 min. Mean ± S.E.M.: 1 hour post-administration, male CD1 mice
# Protocol: Male CD1 mice (Charles River Laboratories, France), about 3 month-old were used. During the acclimatization period, animals were housed 5 per cage, in Makrolon type IlIl cages, in the animal room (temperature: 20±2° C., humidity: minimum 45%, air changes: >12 per hour, light/dark cycle of 12 h/12 h [on at 7:00 A.M:]. Animals were allowed a minimum of 5 days period before experiment for acclimatization.
# Reserpine (Sigma) was dissolved in glacial acetic acid, diluted in water and administered s.c. at 1 mg/kg. 2 injections were given separated by 48 h. SPM 927 was studied at 3 doses (3, 10 and 30 mg/kg; i.p.) given as a single injection. Clonazepam was administered at 1 mg/kg, i.p. (3).
# Reserpine was given twice (Day 1 and Day 3) and SPM 927 was administered 24 h after the last injection of reserpine (Day 4). Behavioral assessment was carried out 1 hour after drug injection (for 10 min). For the behavioral assessment, animals were placed in a plexiglass cage and after 5 min period of habituation, vacuous chewing movements (VCM) were counted for 10 min. VCM occurring during a grooming period were not taken into account.
# Results are expressed as means±S.E.M.s of ten individual values. Statistical analyses was done with ANOVA (one way) and Dunnett's t-test. Significance was considered as p<0.05.
smiles,measurement,setting,value
"COC[C@@H](NC(C)=O)C(=O)NCc1ccccc1 [SPM 927, (R)-2-acetamide-N-benzyl-3-methoxypropionamide]",effect on reserpine-induced dyskinesia (in words),"3 mg/kg i.p., lowest dose",little or no effect
same,effect on number of vacuous chewing movements (in words),10 mg/kg i.p.,reduced the number of vacuous chewing movements
same,effect on number of vacuous chewing movements (in words),"30 mg/kg i.p., highest dose, statistically significant (p<0.05 versus vehicle group)",reduced the number of vacuous chewing movements
same,VCM frequency per 10 min. Mean ± S.E.M.,"Reserpine 1 mg/kg s.c. + SPM 927 3 mg/kg i.p., reserpine + vehicle group 41.4 ± 6.4",48.6 ± 10.6 per 10 min
same,VCM frequency per 10 min. Mean ± S.E.M.,"Reserpine 1 mg/kg s.c. + SPM 927 10 mg/kg i.p., reserpine + vehicle group 41.4 ± 6.4",26.6 ± 5.7 per 10 min
same,VCM frequency per 10 min. Mean ± S.E.M.,"Reserpine 1 mg/kg s.c. + SPM 927 30 mg/kg i.p., p < 0.05 versus reserpine + vehicle group (41.4 ± 6.4)",23.9 ± 7.9 per 10 min
same,overall effect on reserpine-induced tardive dyskinesia / vacuous chewing movements (in words),"mice, no dose stated",attenuates reserpine induced vacuous chewing movements; also recorded: significant efficacy in reducing tardive dyskinesia

# Source: patent US7416864B2, “Method for treating dyskinesia” (Schwarz Pharma AG, priority 2004, dated 2008)
